Data reported in PubChem BioAssay AID1990 (Broad Institute, 2009).
Records with an inconclusive call do not appear. Activity calls are given as the source filed them. The rule behind the calls is not given here.

Molecular target: Luciferin 4-monooxygenase (Photinus pyralis) (UniProt P08659)
Test: Photinus pyralis luciferase inhibitors, H4 neuroglioma cells, confirmatory dose response, luminescence (AID 1990)

Sequence of Luciferin 4-monooxygenase (Photinus pyralis) (P08659 whole entry, looked up): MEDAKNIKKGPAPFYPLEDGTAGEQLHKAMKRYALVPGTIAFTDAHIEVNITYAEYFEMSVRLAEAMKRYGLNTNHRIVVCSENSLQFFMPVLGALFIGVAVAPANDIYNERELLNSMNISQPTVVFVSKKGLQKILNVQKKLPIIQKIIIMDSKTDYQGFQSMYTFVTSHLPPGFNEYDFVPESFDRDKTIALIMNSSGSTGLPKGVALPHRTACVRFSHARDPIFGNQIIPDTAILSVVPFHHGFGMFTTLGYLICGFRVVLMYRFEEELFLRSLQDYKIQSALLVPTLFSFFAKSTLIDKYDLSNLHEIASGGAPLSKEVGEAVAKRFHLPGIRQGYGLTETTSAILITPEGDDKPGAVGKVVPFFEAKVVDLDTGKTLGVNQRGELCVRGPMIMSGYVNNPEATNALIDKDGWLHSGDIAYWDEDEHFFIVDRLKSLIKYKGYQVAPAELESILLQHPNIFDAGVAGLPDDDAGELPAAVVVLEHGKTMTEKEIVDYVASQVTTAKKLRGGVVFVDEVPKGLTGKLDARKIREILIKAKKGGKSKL

SMILES | EC50
COc1ccc(O)c2c(=O)c3c(OC)cc4c(c3oc12)C1C=COC1O4 (stereo not drawn) | < 0.1 µM
C#CCOCCOCCOCCNc1nc(N2CCN(C(=O)CCCCCCCCCCNC(=O)[C@H](CO)n3cc(CCCSC)nn3)CC2)nc(N2CCN(C(=O)CCCCCCCCCCNC(=O)[C@H](CCCCN)n3cc(C[C@@H](C)CC)nn3)CC2)n1 | 7.24 µM
C=C(C=O)CC1CC(O)[C@]2(C)OC3CC4OC5C[C@]6(C)O[C@]7(C)CCC8OC9C[C@]%10(C)OC%11C(C)=CC(=O)OC%11CC%10OC9C[C@@H](C)C8OC7CC6O[C@]5(C)CC5OC5C4OC3CC2O1 (stereo partly drawn) | > 12 µM (inactive)
